The numbers were not newly measured in US8535717B2, “Pharmaceutical composition” (Sun Pharma Advanced Research Company Limited, priority 2005, dated 2013), which cites them from elsewhere.

Each structure is given as a SMILES string.

Regarding `CC[C@@H](C(N)=O)N1CCCC1=O` [levetiracetam], for the setting “cannot be decreased by altering pH of the microenvironment”, the solubility was 104 g/100 ml. Besides, the solubility in water (water) is recorded as 104 g in 100 ml.
